# Results taken from ChEMBL document CHEMBL1201862, “PubChem BioAssay data set” (2004).
#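 Assay format: 96-well plates, 48-hour exposure. GI50 = concentration required for 50% inhibition of growth.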 Activity calls are given as the source filed them. Cut-off read from the data, not from the text of the source: active = GI50 up to about 1.1 µM and inactive = higher.
# How the values were obtained:
# Test in all cases: growth of human tumour cells (NCI), 48 h
# [1] = test system: PC-3
# [2] = test system: MOLT-4
# [3] = test system: BT-549
# [4] = test system: ACHN
# [5] = test system: Malme-3M
# [6] = test system: NCI-H226
# [7] = test system: SK-MEL-28
# [8] = test system: 786-0
# [9] = test system: RPMI-8226
# [10] = test system: T47D
# [11] = test system: HCT-15
# [12] = test system: LOX IMVI
# [13] = test system: TK-10
# [14] = test system: SW-620
# [15] = test system: KM12
# [16] = test system: NCI/ADR-RES
# [17] = test system: RXF 393
# [18] = test system: NCI-H522
# [19] = test system: SK-MEL-5
# [20] = test system: UACC-62
# [21] = test system: SNB-75
# [22] = test system: Hs-578T
# [23] = test system: SN12C
# [24] = test system: SK-MEL-2
# [25] = test system: COLO 205
# [26] = test system: OVCAR-8
# [27] = test system: MCF7
# [28] = test system: NCI-H23
# [29] = test system: EKVX
# [30] = test system: OVCAR-5
# [31] = test system: K562
# [32] = test system: UO-31
# [33] = test system: HL-60
# [34] = test system: SK-OV-3
# [35] = test system: UACC-257
# [36] = test system: OVCAR-3
# [37] = test system: CAKI-1
# [38] = test system: DU-145
# [39] = test system: MDA-MB-435
# [40] = test system: HOP-62
# [41] = test system: OVCAR-4
# [42] = test system: HCC 2998
# [43] = test system: U-251
# [44] = test system: MDA-MB-231
# [45] = test system: HT-29
# [46] = test system: NCI-H460
# [47] = test system: CCRF-CEM
# [48] = test system: A498
# [49] = test system: IGROV-1
# [50] = test system: SNB-19
# [51] = test system: HCT-116
# [52] = test system: HOP-92
# [53] = test system: MDA-N
# [54] = test system: SF-268
# [55] = test system: M14
# [56] = test system: A549
# [57] = test system: SF-295
# [58] = test system: SF-539
structure (smiles),measurement,setting,value
Cc1nnc(N2C(=O)C(=Cc3ccc(Cl)cc3)N=C2c2ccc(Cl)cc2)nc1/C=C\c1ccc(N(C)C)cc1,GI50,[1],> 100 µM (inactive)
same,GI50,[2],> 100 µM (inactive)
same,GI50,[3],> 100 µM (inactive)
same,GI50,[4],> 100 µM (inactive)
same,GI50,[5],> 100 µM (inactive)
same,GI50,[6],> 100 µM (inactive)
same,GI50,[7],> 100 µM (inactive)
same,GI50,[8],> 100 µM (inactive)
same,GI50,[9],72.3 µM (inactive)
same,GI50,[10],> 100 µM (inactive)
same,GI50,[11],> 100 µM
same,GI50,[12],> 100 µM (inactive)
same,GI50,[13],> 100 µM (inactive)
same,GI50,[14],> 100 µM (inactive)
same,GI50,[15],> 100 µM (inactive)
same,GI50,[16],> 100 µM (inactive)
same,GI50,[17],> 100 µM (inactive)
same,GI50,[18],> 100 µM (inactive)
same,GI50,[19],> 100 µM (inactive)
same,GI50,[20],> 100 µM (inactive)
same,GI50,[21],> 100 µM (inactive)
same,GI50,[22],> 100 µM (inactive)
same,GI50,[23],> 100 µM (inactive)
same,GI50,[24],> 100 µM (inactive)
same,GI50,[25],> 100 µM (inactive)
same,GI50,[26],> 100 µM (inactive)
same,GI50,[27],> 100 µM (inactive)
same,GI50,[28],> 100 µM (inactive)
same,GI50,[29],> 100 µM (inactive)
same,GI50,[30],> 100 µM (inactive)
same,GI50,[31],73.3 µM (inactive)
same,GI50,[32],50.8 µM (inactive)
same,GI50,[33],93.8 µM (inactive)
same,GI50,[34],> 100 µM (inactive)
same,GI50,[35],> 100 µM (inactive)
same,GI50,[36],> 100 µM (inactive)
same,GI50,[37],> 100 µM (inactive)
same,GI50,[38],> 100 µM (inactive)
same,GI50,[39],> 100 µM (inactive)
same,GI50,[40],> 100 µM (inactive)
same,GI50,[41],> 100 µM (inactive)
same,GI50,[42],> 100 µM (inactive)
same,GI50,[43],> 100 µM (inactive)
same,GI50,[44],> 100 µM (inactive)
same,GI50,[45],> 100 µM (inactive)
same,GI50,[46],> 100 µM (inactive)
same,GI50,[47],> 100 µM (inactive)
same,GI50,[48],> 100 µM (inactive)
same,GI50,[49],> 100 µM (inactive)
same,GI50,[50],> 100 µM (inactive)
same,GI50,[51],> 100 µM (inactive)
same,GI50,[52],> 100 µM (inactive)
same,GI50,[53],73.1 µM (inactive)
same,GI50,[54],> 100 µM (inactive)
same,GI50,[55],83.6 µM (inactive)
same,GI50,[56],> 100 µM (inactive)
same,GI50,[57],> 100 µM (inactive)
Cc1ccc(Cc2n[nH]c(=O)n2/N=C\CC/C=N\n2c(Cc3ccc(C)cc3)n[nH]c2=O)cc1,GI50,[1],31.3 µM (inactive)
same,GI50,[2],19.1 µM (inactive)
same,GI50,[3],23 µM (inactive)
same,GI50,[4],47.1 µM (inactive)
same,GI50,[5],33.2 µM (inactive)
same,GI50,[6],24.4 µM (inactive)
same,GI50,[7],33.5 µM (inactive)
same,GI50,[8],18.5 µM (inactive)
same,GI50,[9],57.9 µM (inactive)
same,GI50,[10],38.6 µM (inactive)
same,GI50,[11],26 µM
same,GI50,[12],16.9 µM (inactive)
same,GI50,[13],> 100 µM (inactive)
same,GI50,[14],43 µM (inactive)
same,GI50,[15],> 100 µM (inactive)
same,GI50,[16],21.1 µM (inactive)
same,GI50,[17],20.9 µM (inactive)
same,GI50,[18],> 100 µM (inactive)
same,GI50,[58],3.99 µM (inactive)
same,GI50,[19],42.2 µM (inactive)
same,GI50,[20],25.8 µM (inactive)
same,GI50,[21],16.6 µM (inactive)
same,GI50,[22],15.5 µM (inactive)
same,GI50,[23],44.7 µM (inactive)
same,GI50,[24],28 µM (inactive)
same,GI50,[25],> 100 µM (inactive)
same,GI50,[26],17.8 µM (inactive)
same,GI50,[27],23.9 µM (inactive)
same,GI50,[28],26.9 µM (inactive)
same,GI50,[29],33.7 µM (inactive)
same,GI50,[30],> 100 µM (inactive)
same,GI50,[31],96.8 µM (inactive)
same,GI50,[32],> 100 µM (inactive)
same,GI50,[33],14.6 µM (inactive)
same,GI50,[34],36.6 µM (inactive)
same,GI50,[35],57.4 µM (inactive)
same,GI50,[36],> 100 µM (inactive)
same,GI50,[37],> 100 µM (inactive)
same,GI50,[38],> 100 µM (inactive)
same,GI50,[39],36.3 µM (inactive)
same,GI50,[40],6.37 µM (inactive)
same,GI50,[41],> 100 µM (inactive)
same,GI50,[42],> 100 µM (inactive)
same,GI50,[43],19.2 µM (inactive)
same,GI50,[44],31.3 µM (inactive)
same,GI50,[45],28.8 µM (inactive)
same,GI50,[47],4.1 µM (inactive)
same,GI50,[48],90.4 µM (inactive)
same,GI50,[49],33.3 µM (inactive)
same,GI50,[50],39.6 µM (inactive)
same,GI50,[51],33.1 µM (inactive)
same,GI50,[52],25.1 µM (inactive)
same,GI50,[53],37.1 µM (inactive)
same,GI50,[54],18 µM (inactive)
same,GI50,[55],27.3 µM (inactive)
same,GI50,[56],> 100 µM (inactive)
same,GI50,[57],29.9 µM (inactive)
